As usually defined, the melting point is the temperature, or range, at which the solid turns liquid.

Data set [1] relates to tumor necrosis factor (α). Nature of the data set: Cytokine Induction in Human Cells: tumor necrosis factor (α) by ELISA or IGEN Assay. Format: cell-based. As to conditions: human PBMC, incubated 18 to 24 hours, tested at 30–0.014 μM; induction at ≦10 μM. The source says:
(§1) An in vitro human blood cell system is used to assess cytokine induction. Activity is based on the measurement of interferon and tumor necrosis factor (α) (IFN and TNF, respectively) secreted into culture media as described by Testerman et. al. In “Cytokine Induction by the Immunomodulators Imiquimod and S-27609”, Journal of Leukocyte Biology, 58, 365–372 (September, 1995).
(§2) Whole blood from healthy human donors is collected by venipuncture into EDTA vacutainer tubes. Peripheral blood mononuclear cells (PBMC) are separated from whole blood by density gradient centrifugation using Histopaque®-1077. Blood is diluted 1:1 with Dulbecco's Phosphate Buffered Saline (DPBS) or Hank's Balanced Salts Solution (HBSS). The PBMC layer is collected and washed twice with DPBS or HBSS and resuspended at 4×10^6 cells/mL in RPMI complete. The PBMC suspension is added to 48 well flat bottom sterile tissue culture plates (Costar, Cambridge, Mass. or Becton Dickinson Labware, Lincoln Park, N.J.) containing an equal volume of RPMI complete media containing test compound.
(§3) The compounds are solubilized in dimethyl sulfoxide (DMSO). The DMSO concentration should not exceed a final concentration of 1% for addition to the culture wells. The compounds are generally tested at concentrations ranging from 30–0.014 μM.
(§4) The solution of test compound is added at 60 μM to the first well containing RPMI complete and serial 3 fold dilutions are made in the wells. The PBMC suspension is then added to the wells in an equal volume, bringing the test compound concentrations to the desired range (30–0.014 μM). The final concentration of PBMC suspension is 2×10^6 cells/mL. The plates are covered with sterile plastic lids, mixed gently and then incubated for 18 to 24 hours at 37° C. in a 5% carbon dioxide atmosphere.
(§5) Following incubation the plates are centrifuged for 10 minutes at 1000 rpm (˜200×g) at 4° C. The cell-free culture supernatant is removed with a sterile polypropylene pipet and transferred to sterile polypropylene tubes. Samples are maintained at −30 to −70° C. until analysis. The samples are analyzed for interferon (a) by ELISA and for tumor necrosis factor (α) by ELISA or IGEN Assay.
Tumor necrosis factor (α) (TNF-α) concentration is determined using ELISA kits available from Biosource International, Camarillo, Calif. Alternately, the TNF-α concentration can be determined by Origen® M-Series Immunoassay and read on an IGEN M-8 analyzer from IGEN International, Gaithersburg, Md. The immunoassay uses a human TNF-α capture and detection antibody pair from Biosource International, Camarillo, Calif. Results are expressed in pg/mL.
On the technique in general: ELISA stands for enzyme-linked immunosorbent assay.

For data set [2], the system named is interferon (α). Nature of the data set: Cytokine Induction in Human Cells: interferon (α) by ELISA. Format: cell-based. As to conditions: human PBMC, incubated 18 to 24 hours, tested at 30–0.014 μM; induction at ≦10 μM.
From the text: as §1, §2, §3, §4, §5
Interferon (α) concentration is determined by ELISA using a Human Multi-Species kit from PBL Biomedical Laboratories, New Brunswick, N.J. Results are expressed in pg/mL.

Data set [3] in a line: Solubility in DMSO for testing. Format: physicochemical. Details: key: *: the compound was not adequately soluble in DMSO to permit testing. As to conditions: printed as * in the cytokine columns. As for the experimental part: as §3
Compounds of the invention were tested for their ability to induce cytokine biosynthesis using the method described above.

For `CCCCc1nc2c(N)nc3ccccc3c2n1CCCCNC(=O)NCCCCn1c(CCCC)nc2c(N)nc3ccccc3c21` [Example 1, N,N′-bis[4-(4-amino-2-butyl-1H-imidazo[4,5-c]quinolin-1-yl)butyl]urea], the melting point fell in the range of 218.1 to 219.7 °C. In addition, in data set [1], the “Tumor Necrosis Factor (α)” value is on record as “+ (at concentrations of ≦10 μM the compound induced the indicated cytokine)”. The “Interferon (α)” value in data set [2] was “+ (at concentrations of ≦10 μM the compound induced the indicated cytokine)”.
In turn, `CCCCc1nc2c(N)nc3ccccc3c2n1CCCCNC(=O)Nc1cccc(NC(=O)NCCCCn2c(CCCC)nc3c(N)nc4ccccc4c32)c1` [Example 2, N,N″-1,3-phenylenebis{N′-[4-(4-amino-2-butyl-1H-imidazo[4,5-c]quinolin-1-yl)butyl]urea}] came in with a melting point of 160.3 to 165.6 °C. The “Tumor Necrosis Factor (α)” value in data set [1] was “+ (at concentrations of ≦10 μM the compound induced the indicated cytokine)”. Further, in data set [2], the “Interferon (α)” value is on record as “+ (at concentrations of ≦10 μM the compound induced the indicated cytokine)”.
As to `CCCCc1nc2c(N)nc3ccccc3c2n1CCCCNC(=O)Nc1ccc(Oc2ccc(NC(=O)NCCCCn3c(CCCC)nc4c(N)nc5ccccc5c43)cc2)cc1` [Example 3, N-[4-(4-amino-2-butyl-1H-imidazo[4,5-c]quinolin-1-yl)butyl]-N′-(4-{4-[({[4-(4-amino-2-butyl-1H-imidazo[4,5-c]quinolin-1-yl)butyl]amino}carbonyl)amino]phenoxy}phenyl)urea], the melting point is 152.1 to 156.1 °C. Besides, in data set [1], the “Tumor Necrosis Factor (α)” value is on record as “+ (at concentrations of ≦10 μM the compound induced the indicated cytokine)”. The “Interferon (α)” value in data set [2] is “+ (at concentrations of ≦10 μM the compound induced the indicated cytokine)”.
For `CCCCc1nc2c(N)nc3ccccc3c2n1CCCCNC(=O)N[C@H]1CC[C@H](NC(=O)NCCCCn2c(CCCC)nc3c(N)nc4ccccc4c32)CC1` [Example 4, N,N″-trans-1,4-cyclohexylenebis{N′-[4-(4-amino-2-butyl-1H-imidazo[4,5-c]quinolin-1-yl)butyl]urea}], the melting point lay in the range of 184.5 to 188.8 °C. Further, the “Tumor Necrosis Factor (α)” value in data set [1] was “+ (at concentrations of ≦10 μM the compound induced the indicated cytokine)”. Besides, in data set [2], the “Interferon (α)” value was “+ (at concentrations of ≦10 μM the compound induced the indicated cytokine)”.
Consider `COCCc1nc2c(N)nc3ccccc3c2n1CCOCCNS(=O)(=O)c1cccc(S(=O)(=O)NCCOCCn2c(CCOC)nc3c(N)nc4ccccc4c32)c1` [Example 5, N,N-bis(2-{2-[4-amino-2-(2-methoxyethyl)-1H-imidazo[4,5-c]quinolin-1-yl]ethoxy}ethyl)benzene-1,3-disulfonamide], for which the melting point was 115 to 120 °C. The “Tumor Necrosis Factor (α)” value in data set [1] is “+ (at concentrations of ≦10 μM the compound induced the indicated cytokine)”. The “Interferon (α)” value in data set [2] was “+ (at concentrations of ≦10 μM the compound induced the indicated cytokine)”.
Take `COCCc1nc2c(N)nc3ccccc3c2n1CCOCCNC(=O)c1ccc(C(=O)NCCOCCn2c(CCOC)nc3c(N)nc4ccccc4c32)cc1` [Example 6, N,N′-bis(2-{2-[4-amino-2-(2-methoxyethyl)-1H-imidazo[4,5-c]quinolin-1-yl]ethoxy}ethyl)terephthalamide]: in data set [1], the “Tumor Necrosis Factor (α)” value is recorded as “+ (at concentrations of ≦10 μM the compound induced the indicated cytokine)”. For the same compound, the “Interferon (α)” value in data set [2] is listed as “+ (at concentrations of ≦10 μM the compound induced the indicated cytokine)”.
Compound `COCCc1nc2c(N)nc3ccccc3c2n1CCOCCNC(=O)NCCCCCCCCNC(=O)NCCOCCn1c(CCOC)nc2c(N)nc3ccccc3c21` [Example 7, N,N″-1,8-octanediylbis[N′-(2-{2-[4-amino-2-(methoxyethyl)-1H-imidazo[4,5-c]quinolin-1-yl]ethoxy}ethyl)urea]] yielded a melting point of 172.5 to 177 °C. In addition, the “Tumor Necrosis Factor (α)” value in data set [1] is recorded as “+ (at concentrations of ≦10 μM the compound induced the indicated cytokine)”. For the same compound, the “Interferon (α)” value in data set [2] is on record as “+ (at concentrations of ≦10 μM the compound induced the indicated cytokine)”.
Regarding `CCOCc1nc2c(N)nc3ccccc3c2n1CCCCCCCCCCn1c(COCC)nc2c(N)nc3ccccc3c21` [Example 8, 1-[10-(4-amino-2-ethoxymethyl-1H-imidazo[4,5-c]quinolin-1-yl)decyl]-2-ethoxymethyl-1H-imidazo[4,5-c]quinoline-4-amine], the melting point was in the range of 237 to 238 °C. Also, the “adequately soluble in DMSO to permit testing” value in data set [3] is given as “*”.

Source of the values: patent publication US7112677B2, “1H-imidazo dimers” (3M Innovative Properties Company, priority 2002, dated 2006).
